In paper PMC12164026, “Plant-derived nodule-specific cysteine-rich peptides as potent antifungal agents against Cryptococcus neoformans: mechanisms of action, chimeric peptide enhancement, and immunomodulatory effects” (Current Research in Microbial Sciences, 2025):
Peptide text beside a SMILES is read from it.

Legend:
[1] = test system: Cryptococcus neoformans IFM 5844; assay: Minimal fungicidal concentration (MFC) determination, spotting on YPD; assay type: cell-based; settings: cultures from MIC assays diluted and spotted onto solid YPD, 30 °C, 48 h
Experimental: Minimal fungicidal concentration (MFC) determination. To assess fungicidal activity, both control and peptide-treated cultures from the MIC assays were diluted 10-fold and 100-fold in sterile distilled water. Five µL from each dilution was then spotted onto solid YPD medium (1 % pepton, 1 % dextrose, 0.5 % yeast extract, 2 % agar). The plates were incubated at 30 °C for 48 h and fungal growth was evaluated. MFC was defined as the lowest peptide concentration at which no visible fungal growth was detected, indicating complete fungicidal activity.

[2] = test system: J774.2 mouse macrophage cells; assay: Cytotoxicity, MTT assay; assay type: cell-based; settings: 25 µM, 3 h, X-VIVO medium, relative to untreated control
Experimental: J774.2 cells were cultured as described previously and seeded into microtiter plates at a density of 5 × 10⁴ cells per well. The cells were incubated at 37 °C under 5 % CO₂ and 95 % relative humidity in X-VIVO™ medium until they adhered to the plate surface. Following attachment, cells were treated with peptides at their respective MIC concentrations in X-VIVO medium for 3 h under the same incubation conditions.
After peptide treatment, cells were washed with PBS (phosphate-buffered saline) and incubated in X-VIVO™ medium supplemented with 0.5 mg/mL MTT reagent (3-[4,5-dimethylthiazol-2-yl]−2,5-diphenyltetrazolium bromide, Merck KGaA, Darmstadt, Germany). The MTT assay was used to evaluate cell viability by staining live cells, leading to the formation of formazan crystals. These crystals were dissolved in dimethyl sulfoxide (DMSO), and absorbance was measured at 570 nm using a SPECTROstar Nano plate reader (BMG LabTech, Offenburg, Germany). The absorbance of untreated control cells was set as 100 % viability, and experimental results were expressed relative to this control. Each experiment was conducted in at least three independent biological replicates to ensure statistical reliability.

[3] = test system: C. neoformans IFM 5844 cells; assay: Cell membrane permeability, calcein-AM assay by flow cytometry; assay type: cell-based, Cryptococcus neoformans; settings: half-MIC, 2 h, 30 °C, YNB
Experimental: The effect of the peptides on the cell membrane permeability of C. neoformans IFM 5844 cells was checked by flow cytometry with calcein-AM assay ([Olson, et al., 2001]). Calcein-acetoxymethyl ester (calcein-AM) is a membrane-permeable live-cell dye that, upon entering the cell, is cleaved by intracellular esterases, converting it into calcein, a membrane-impermeable fluorescent marker. The assay was carried out by suspending a total of 1 × 10^7 cells in 100 µl YNB medium containing 20 µg/mL indomethacin (Sigma-Aldrich, Saint Louis, MO, USA) and incubating them at 30 °C for 30 min to inhibit calcein transporters. Following this pre-treatment, membrane-permeable calcein-AM (Invitrogen, Waltham, MA, USA) was added to a final concentration of 5 µg/mL, and the samples were incubated at 30 °C for 3 h allowing the calcein-AM to enter the cells where esterases converted it to fluorescent calcein. After incubation, cells were washed twice with sterile distilled water and subsequently exposed to peptides at half-MIC concentrations in YNB medium for 2 h at 30 °C. Following peptide treatment, cells were washed twice with sterile distilled water, and fluorescence intensity was measured using a FlowSight® flow cytometer (Amnis-EMD Millipore) equipped with a 488-nm excitation laser. Intact cells stained with calcein-AM but not exposed to peptides served as controls. To ensure statistical reliability, four independent experiments were conducted, and fluorescence intensity was recorded from 10,000 cells per sample during each experiment.

## CC[C@H](C)[C@H](NC(=O)[C@H](CS)NC(=O)CNC(=O)[C@H](CC(N)=O)NC(=O)[C@@H](N)CCCNC(=N)N)C(=O)N[C@H](C(=O)N[C@@H](CC(=O)O)C(=O)N1CCC[C@H]1C(=O)N[C@@H](CCCNC(=N)N)C(=O)N[C@@H](CS)C(=O)N1CCC[C@H]1C(=O)N[C@@H](Cc1ccc(O)cc1)C(=O)N[C@@H](CCC(N)=O)C(=O)N[C@@H](CCC(N)=O)C(=O)N[C@@H](CS)C(=O)N[C@@H](CCCNC(=N)N)C(=O)N[C@@H](CCCNC(=N)N)C(=O)N1CCC[C@H]1C(=O)N[C@@H](CC(C)C)C(=O)N[C@@H](Cc1ccc(O)cc1)C(=O)N[C@@H](CS)C(=O)N[C@@H](CCCNC(=N)N)C(=O)N[C@@H](CCCNC(=N)N)C(=O)N[C@@H](CCCNC(=N)N)C(N)=O)C(C)C [NCR247] (H-RNGCIVDPRCPYQQCRRPLYCRRR-NH2; N-terminus assumed)
[1]
  fungistatic or fungicide mode of action: fungicidal effect
[2]
  reduction in macrophage viability: 25%

## CC[C@H](C)[C@H](NC(=O)[C@@H]1CCCN1C(=O)[C@@H](NC(=O)[C@H](CS)NC(=O)[C@H](Cc1ccc(O)cc1)NC(=O)[C@H](CO)NC(=O)[C@H](CCCCN)NC(=O)[C@H](CCCNC(=N)N)NC(=O)[C@H](CS)NC(=O)[C@H](CCCNC(=N)N)NC(=O)[C@@H](NC(=O)[C@H](CC(N)=O)NC(=O)[C@H](C)NC(=O)[C@H](CCCNC(=N)N)NC(=O)[C@H](CCCNC(=N)N)NC(=O)[C@H](CC(C)C)NC(=O)[C@@H](N)CCCCN)C(C)C)C(C)C)C(N)=O [NCR335C17–33] (H-KLRRANVRCRKSYCVPI-NH2; N-terminus assumed)
[1]
  fungistatic or fungicide mode of action: fungicidal effect
[3]
  calcein leakage / membrane permeability disruption: highest calcein leakage
[2]
  reduction in macrophage viability: 15%
